Entries after “also recorded” stand apart in the source; their conditions may differ. Where two headings read alike, the source gives them in different places.

We go through three compounds from US20250188123A1, “PROTEASE INHIBITORS” (Regents of the University of Minnesota, priority 2022, published 2025).

For the experiment, the target named is T1, recombinant human caspase-2 (cleavage of tau at D314) (Homo sapiens, UniProt P42575).
T1 construct: human caspase-2 p19 and p12 subunits were cloned as two separate open reading frames in the pCOLADuet-1 vector; made in house; host or cells: E. coli BL21(DE3)
T1 sequence (P42575 170-325 limits assumed): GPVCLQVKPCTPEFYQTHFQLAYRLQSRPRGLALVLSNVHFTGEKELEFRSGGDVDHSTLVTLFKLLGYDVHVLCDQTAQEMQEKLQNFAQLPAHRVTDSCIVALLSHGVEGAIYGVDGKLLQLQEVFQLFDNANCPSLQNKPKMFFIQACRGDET
T1 sequence (P42575 348-452 limits assumed): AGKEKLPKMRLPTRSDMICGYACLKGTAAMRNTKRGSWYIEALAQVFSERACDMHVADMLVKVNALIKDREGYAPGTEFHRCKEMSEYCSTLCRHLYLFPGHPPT
As to the kind of experiment: In vitro caspase-2-catalyzed tau cleavage assay (Δtau314 production, IP/WB). Format: biochemical. Particulars: for inhibition at 10 µM: read-out: inhibition of Casp2-catalyzed Δtau314 production (tau cleavage at D314). The protocol: DNA sequences encoding human caspase-2 p19 and p12 subunits were cloned as two separate open reading frames in the pCOLADuet-1 vector (Millipore Sigma, Burlington, MA). The DNA sequence encoding human microtubule-associated protein tau 0N4R isoform was cloned in the pET28a vector (Millipore Sigma). Expression of recombinant human caspase-2 and tau was induced using 150 μM isopropyl-β-D-thiogalactopyranoside (IPTG) (Promega, Madison, WI) in the BL21(DE3) E. coli strain (Millipore Sigma) at room temperature for 16 hours while shaking at 250 rpm. Cells were then harvested via centrifugation at 6,000 g, 4° C. for 15 minutes, followed by lysis via sonication. Proteins were purified using HisPur Ni-NTA resin (Thermo Fisher Scientific, Waltham, MA) followed by HiTrap Chelating HP columns (GE Healthcare Life Sciences, Piscataway, NJ). Proteins were stored in 1× phosphate-buffered saline (pH 7.4) at 10 mg/mL (determined using a BCA assay (Thermo Fisher Scientific)), −80° C. until further use.
Purified recombinant Casp2 (final concentration during pre-incubation: 67 μM) was pre-incubated with various concentrations of inhibitory compounds at 4° C. for 72 h. Pre-treated enzyme was then incubated with purified recombinant tau at a molar ratio of 1:1 in 37° C. water bath, 1× reaction buffer (25 mM 4-(2-hydroxyethyl)-1-piperazineethanesulfonic acid (HEPES), 0.1% (w/v) 3-[(3-cholamidopropyl)dimethylammonio]-1-propanesulfonate (CHAPS), 10 mM dithiothreitol (DTT), pH 7.5) for 7 h. The final volume of each reaction was 100 μL. At the end of the 7-h incubation, 0.1% (v/v) protease inhibitor cocktail (Millipore Sigma) was added to stop the reactions.
Immediately after the reaction was stopped, the 100 μL enzyme-product mixture was diluted in 400 μL IP buffer (50 mM Tris-HCl (pH 7.4) and 150 mM NaCl, containing 0.1 mM phenylmethylsulfonyl fluoride, 0.2 mM 1,10-phenanthroline monohydrate, and protease inhibitor cocktail (Millipore Sigma)), and then incubated with 10 μg of Δtau314-specific monoclonal antibody 4F3 and 50 μL of Protein G Sepharose 4 Fast Flow resin (GE Healthcare) at 4° C. for 14-16 h. Subsequent resin wash and protein elution were performed as described previously (Liu P, et al., Scientific Reportsm 2020, 10, 3869). WB was performed according to a previously published protocol (Liu P, et al., Acta Neuropathologica Communications, 2019; 7, 111).

In the case of `CC(=O)N[C@H](C(=O)NC(CC(=O)O)C(=O)N[C@H](C(=O)N1CCc2cc(C)ccc2C1C(=O)N[C@H](C=O)CC(=O)O)C(C)C)C(C)C` (stereo in doubt) [Compound 30a, (R)-3-((S)-2-acetamido-3-methylbutanamido)-4-(((S)-1-((S)-1-(((S)-1-carboxy-3-oxopropan-2-yl)carbamoyl)-6-methyl-3,4-dihydroisoquinolin-2(1H)-yl)-3-methyl-1-oxobutan-2-yl)amino)-4-oxobutanoic acid, reference compound], the “inhibition of Casp2-catalyzed Δtau314 production (tau cleavage at D314)” value (compound at 10 μM, no-compound control = 100% Δtau314, 10 µM) is “no inhibition; also recorded: did not inhibit”.
On to `CC(=O)N[C@H](C(=O)N[C@@H](CC(=O)O)C(=O)N[C@H](C(=O)N1CCc2cc(C)ccc2[C@H]1C(=O)N[C@H](C=O)CC(=O)O)C(C)C)C(C)C` [Compound 30b, (S)-3-((S)-2-acetamido-3-methylbutanamido)-4-(((S)-1-((S)-1-(((S)-1-carboxy-3-oxopropan-2-yl)carbamoyl)-6-methyl-3,4-dihydroisoquinolin-2(1H)-yl)-3-methyl-1-oxobutan-2-yl)amino)-4-oxobutanoic acid, reference compound], for which, where the note is “compound at 10 μM, no-compound control = 100% Δtau314”, the inhibition (as a rule, the percentage by which the read-out fell short of the control) at 10 µM is 68%.
Turning to `Cc1ccc2c(c1)CCN(C(=O)[C@@H](NC(=O)[C@H](CCCC(=O)O)NC(=O)C1Cc3ccccc3N1)C(C)C)[C@@H]2C(=O)N[C@H](C#N)CC(=O)O` (stereo partly drawn) [Compound 1, (8)-6-(((S)-1-((8)-1-(((S)-2-carboxy-1-cyanoethyl)carbamoyl)-6-methyl-3,4-dihydroisoquinolin-2(1H)-yl)-3-methyl-1-oxobutan-2-yl)amino)-5-((S)-indoline-2-carboxamido)-6-oxohexanoic acid], the concentration for half-maximal inhibition (IC50) (in general, the concentration that gives 50% inhibition) is 2.02 ± 0.19 µM and the inhibition at 10 µM is 96%.
